Test results published in patent publication US8715718B2, “Extracellular matrix production from nanoscale substrate” (Rutgers, The State University of New Jersey, priority 2006, dated 2014).

Columns and labels:
[1] = system: Human foreskin fibroblasts; experiment: Imaging of fibronectin matrix assembly as a function of carrier size and ligand density; format: cell-based; settings: serum-free, 24 hours
Description: Substrates with equal levels of ligand but differential presentation were adsorbed in 8-well Labtek chamber slides overnight at 4° C. Substrates were then washed generously with PBS and blocked with BSA for 1 hour at 37° C. Fibroblasts were serum-starved at least 12 hours prior to trypsinization and re-plated at a density of 35,000 cells per well in serum free media. Cells were then cultured for 24 hours at 37° C. After 24 hour incubation, media was removed and substrates were washed with DPBS with calcium and magnesium. Cells were fixed with 1% formaldehyde for 9 minutes and washed with DPBS with calcium and magnesium. Cells were permeabilized with Triton-X 100 for 15 minutes and washed with DPBS with calcium and magnesium and blocked with 1% BSA for 1 hour at 37° C. Substrates were washed and primary antibody IST-4 (Sigma) for fibronectin that binds to the 5th type III repeat of human plasma fibronectin was incubated at a 1:100 dilution in PBS overnight at 4° C. Substrates were washed and incubated with FITC-conjugated donkey anti-mouse IgG (Jackson Immunolabs, West Grove, Pa.) at a 1:200 dilution for 30 minutes at room temperature, and were then washed and incubated with Texas-red phalloidin (Molecular Probes, Eugene, Oreg.) for 20 minutes at room temperature. Substrates were washed and stored at 4° C. until image acquisition. […]

fibroblasts [2] = experiment: Cell morphology on ligand-ANC (FITC-phalloidin); format: cell-based, human
Description: Cell morphology was examined as a function of differential ligand presentation and nanocarrier size at two time points. Passively adsorbed substrates were prepared as described above. Fibroblasts that were serum deprived at least 12 hours before hand were seeded in serum free media for 1 or 5 hours at 37° C. Substrates were washed after the designated incubation time, and fixed with 3.7% formaldehyde for 15 minutes at room temperature. Substrates were washed again and permeabilized with Triton-X 100 for 15 minutes at room temperature. Substrates were washed, blocked with 1% BSA for 15 minutes at room temperature, washed again, and stained with FITC phalloidin (Molecular Probes) for 20 minutes. Substrates were washed and stored at 4° C. until image acquisition. Images were acquired with a Leica TCS SP/2 at 63×.
The effects of ligand presentation on cytoskeletal morphology were examined by labeling F-actin at two different time points (FIG. 7b). In that experiment, cell morphology was examined of fibroblasts cultured at the optimal ligand density for cell attachment (2.2 μg/cm^2) at 1 hour (left column) and 5 hours (right column) using FITC-phalloidin.

[3] = system: Human foreskin fibroblasts, HFF; experiment: Fibronectin matrix assembly by HFF, immunofluorescence and image analysis; format: cell-based
Description: (§1) Labtek chamber slides (Nalge Nunc International, Rochester, N.Y.) were coated overnight at 4° C. with FNf-ANPs or FNf as described above to attain equivalent display with FNf. […] Fibroblasts were seeded at densities and incubated for times described in each figure legend. […] Samples were then incubated with primary antibodies in blocking buffer (3% BSA) for 1 hour, washed, and further incubated with the appropriate secondary antibodies for 1 hour. Where indicated, cells were also incubated with TexasRed X- or fluoroscein-conjugated phalloidin to visualize F-actin. Cells were examined using a Leica SP/2 Confocal Laser Scanning Microscope.

[4] = system: Human foreskin fibroblasts, HFF; experiment: Cell morphology by F-actin staining and shape factor; format: cell-based
Description: as §1
To characterize the effect of nanoparticle display of FNf on early cellular responses, adhesion and morphology were examined. […] Next, we extended the culture time of human foreskin fibroblasts (“HFF”) on FNf-ANPs or equivalent FNf, and evaluated cellular morphology. HFF (2.3×10^4 cells/cm^2) were cultured for 5 hours on surfaces prepared as described in Materials and Methods, then stained for F-actin with Texas Red X-conjugated phalloidin. Bar, 40 μm.
(§2) To analyze cellular morphology, shape factors were quantified for all conditions.

[5] = system: Human foreskin fibroblasts, HFF; experiment: Cell adhesion assay (hexosaminidase); format: cell-based
Description: To quantify cell attachment to FNf-ANPs, 96-well non-tissue culture dishes were coated overnight at 4° C. with FNf-ANPs or FNf as described above. Wells were washed with PBS and blocked with 1% bovine serum albumin. After washing with PBS, HFF were plated at 2.5×10^4 cells/well and incubated for 60 minutes at 37° C. Medium and unbound cells were removed by inversion of the plate and two washes with PBS. Quantification of the number of adherent cells was performed using the hexosaminidase assay. Briefly, substrate composed of a 1:1 mixture of 0.5% Triton-X 100 and 7.5 mM β-nitrophenyl N-acetyl β-D glucosaminide in 0.1 M citrate buffer, pH 5.0, was added to each well and incubated for 90 minutes at 37° C. The reaction was terminated with 50 mM glycine/5 mM EDTA, pH 10.4 and the absorbance read at 405 nm on a multiwell plate reader.
as §2

fibroblasts [6] = experiment: Cell attachment to ligand-ANC (hexosaminidase assay); format: cell-based, human; settings: 1 hour, equal ligand density, differential presentation
Description: To quantify cell attachment to ligand-ANC, 96-well non-tissue culture dishes were passively coated overnight at 4° C. with varying ligand density and presentation as described above. Wells were washed with PBS and blocked with 1% bovine serum albumin. After washing, fibroblasts were seeded at 25,000 cells/well and incubated for 1 hour at 37° C. Substrates were washed with PBS to remove unbound cells. Adhered cells were quantified using the hexosaminidase assay. Briefly, a substrate mixture composed of 1 part […] and 1 part 7.5 mM [3-nitrophenyl N-acetyl [3-D glucosaminide (Sigma) in 0.1 M citrate buffer (pH 5.0), was added to each well and incubated for 90 minutes at 37° C. The reaction was terminated with a mixture of 50 mM glycine (Sigma) and 5 mM EDTA (Sigma) (pH 10.4). The absorbance was read at 405 nm on a multiwell plate reader.
Cell attachment is one of the earliest cell anchorage responses to substrates. To examine if the nanoscale presentation of ligand could alter early cell binding and attachment events, fibroblasts were seeded on ligand-adsorbed substrates of three different ligand densities with different presentations (FIG. 7a). […] Cells were incubated for 1 hour, unbound cells were washed, and the number of adherent cells was quantified using the hexosaminidase assay. […]

whole length mouse fibronectin: whole length mouse fibronectin (Innovative Research) adsorbed as control substrate
fibronectin fibrils on control substrates [1]: Fibrils were not seen | cell spreading / morphology on control substrates (fibroblasts [2]; control substrates): polarized morphology consistent with migrating cells

C[C@@H](N)[C@H]1CC[C@H](C(=O)Nc2ccncc2)CC1 [Y27632]
effect on FNf-ANP induced matrix assembly by HFF ([3]; 3 μM Y27632 added 2 hours after seeding on FNf-ANP 1.70 μg/cm^2, overnight): abrogated | fibronectin matrix fibrils in the extracellular space compared to control conditions ([3]; HFF on FNf-ANP treated with Y27632, image analysis): significantly decreased levels

FNf: recombinant GST fusion of fibronectin fragment comprising repeats III9 and III10, adsorbed alone as comparator
cell spreading (morphology) ([4]; 45 minutes post seeding): minimally spread | cell morphology ([4]; 5 hours of culture, F-actin staining): flattened, well-spread appearance | shape factor, (perimeter)^2/(4π(area)) ([4]; 5 hours, about 25 cells per condition, all FNf densities): around 4 | cell attachment ([5]; 60 minutes, lowest amount of ligand tested): no detectable attachment | cellular adhesion over the FNf concentration range ([5]; adsorbed FNf up to the highest concentration): no significant increase in cellular adhesion | deposition of fibronectin into the ECM when presented via the culture medium ([3]; HFF on bare coverglass, ligand added to media, overnight): not sufficient | cell attachment at a specific ligand density (fibroblasts [6]): significant attachment, but to a lesser degree | cell spreading / morphology at 1 hour (fibroblasts [2]; 2.2 μg/cm^2, 1 hour): some filopodial projections | cell morphology at 5 hours (fibroblasts [2]; 2.2 μg/cm^2, 5 hours): well-spread with well defined stress fibers
